According to patent US20230398130A1, “METHODS AND COMPOSITIONS FOR DIFFERENTIATING STEM CELLS” (Massachusetts Institute of Technology, priority 2020, published 2023):
Entries after “also recorded” stand apart in the source; their conditions may differ.

Tests used:
[1] = tested on: ENR+CD differentiating organoids; experiment: Longitudinal single-cell RNA-seq (Seq-Well) of organoid differentiation, ENR+CD with or without 160 nM KPT-330; type: cell-based, murine
From the text: For time points beyond 2 days, media was refreshed every other day. Following the Seq-Well protocol Applicants followed a standard library preparation, sequencing, and alignment process (see Methods). […] Single-cell RNA-sequencing. A single-cell suspension was obtained from organoids cultured under conditions for the differentiation time course as described above. Applicants utilized the Seq-Well platform for massively parallel scRNA-seq to capture transcriptomes of single cells on barcoded mRNA capture beads. […] In brief, 20,000 cells from one organoid condition were loaded onto one array containing 100,000 barcoded mRNA capture beads. The loaded arrays containing cells and beads were then sealed using a polycarbonate membrane with a pore size of […], which allows for exchange of buffers but retains biological molecules confined within each microwell. Subsequent exchange of buffers allows for cell lysis, transcript hybridization, and bead recovery before performing reverse transcription en masse. Following reverse transcription and exonuclease treatment to remove excess primers, PCR amplification was carried out using KAPA HiFi PCR Mastermix with 2,000 beads per 50 μL reaction volume. Libraries were then pooled and purified using Agencourt AMPure XP beads (Beckman Coulter, A63881) by a 0.6×SPRI followed by a 0.8×SPRI and quantified using Qubit […] (Thermo Fisher). Libraries were constructed using the Nextera Tagmentation method on a total of 800 pg of pooled cDNA library per sample. […] Arrays were sequenced with an Illumina NovaSeq System. The read structure was paired end with Read 1 starting from a custom read 1 primer containing 20 bases with a 12 bp cell barcode and 8 bp unique molecular identifier (UMI) and Read 2 being 50 bases containing transcript information. Single-cell RNA-sequencing computational pipelines and analysis. […] Briefly, for each sequencing run, raw sequencing data was converted to demultiplexed FASTQ files using bcl2fastq2 based on Nextera N700 indices corresponding to individual samples/arrays. […] Individual reads were tagged according to the 12-bp barcode sequencing and the 8-bp UMI contained in Read 1 of each fragment. Following alignment, reads were binned onto 12-bp cell barcodes and collapsed by their 8-bp UMI. Digital gene expression matrices (e.g. cell by gene tables) for each sample were obtained from quality filtered and mapped reads and UMI-collapsed data, are deposited in GSE100274, and were utilized as input into Seurat v3 for further analysis. […] Applicants collected 17 samples at the following timepoints: 6 hours (0.25 days), and 1, 2, 3, 4, or 6 days. […] For time points beyond 2 days, media was refreshed every other day. […] Murine and human single-cell RNA-sequencing and alignment. […] Excess Matrigel was removed per previously described washing protocol, and organoids were resuspended in TrypLE at 37 C for 15 min, with vigorous homogenization through a p200 pipette tip every 5 min. After 15 min, the suspension was passed through a 30 uM cell strainer twice, and counted under brightfield microscopy with trypan blue staining for viable single cells. For human organoid scRNA-seq, antibody-based cell hashing was performed, with all samples pooled following labeling and three washes in FACS buffer to remove excess antibody. Each sample was manually counted to equally weight in cell pools, and then the pool was split and processed as four identical samples.

[2] = tested on: ISC-enriched organoids; experiment: Secondary (validation) screen, 384-well 2.5-D, ENR+CD 6 days, n=8 wells, vs ENR+CD+DMSO control: ATP (CTG); type: cell-based, murine

O=C(/C=C\n1cnc(-c2cc(C(F)(F)F)cc(C(F)(F)F)c2)n1)NNc1cnccn1 [KPT-330]
organoid cell type composition over differentiation time course ([1]; 160 nM KPT-330 vs control, day 0.25-6): enhances stem conversion to mature cells; also recorded: relative depletion of stem I (and stem II & III) and enteroendocrine cells over time along with the corresponding enrichment of enterocytes and Paneth cells | inferred signaling pathway activity (PROGENy), effect of KPT-330 ([1]; Cohen's d per pathway and cell type): pan-epithelial increase in stress-associated Trail signaling | inferred upstream TF activity clusters (DoRothEA), effect of KPT-330 ([1]; Fisher's exact test per cell type): depletion of cell cycle cluster 0 and enrichment in stress response cluster 6 | active and quiescent ISC signature ([1]; early stem cell populations, KPT-330 vs control): induces a quiescent ISC signature and reduces an active ISC signature; also recorded: transition into quiescence | differentially expressed genes, KPT-330 treated vs untreated ([1]; stem II/III populations, day 0.25-2): most significantly enriched (Xpo1) and depleted (Kpnb1 | gene set enrichment analysis (MSigDB hallmark v7) ([1]; stem II/III populations, day 0.25-2, FDR<0.05): suppresses programs downstream of mitogen-driven signaling | Z.CTG ([2]; Dose 0.02 uM): 1.135 | repSSMD.CTG ([2]; Dose 0.02 uM): 0.959 | Z.CTG ([2]; Dose 0.04 uM): 0.263 | repSSMD.CTG ([2]; Dose 0.04 uM): 0.179 | Z.CTG ([2]; dose 0.08 uM): 1.273 | repSSMD.CTG ([2]; dose 0.08 uM): 0.916
